Patent publication US20080200337A1, “Mixed herbicide compositions for paddy field” (Bayer CropScience, priority 2007, published 2008)
Several values for one entry are separate records, joined by “and”; a condition that tells them apart may be missing. Equal values may be shown once.

Legend:
Assay type in all cases: in vivo
Cyperus difformis L. = assay: Weed control by spray treatment at 1.5 to 3.0 leaf-stage (Test Example 3); conditions: spray at 1.5 to 3.0 leaf-stage, 4 weeks later
Method: (§1) Carrier: 5 parts by weight of acetone
(§2) Surfactant: one part by weight of benzyloxy polyglycol ether.
(§3) Above described carrier and surfactant are mixed with one part by weight of the active compound ((a) ingredient and (b) ingredient) and the resulting preparation is then diluted with water to obtain given amount of the test drug (the formulation).
(§4) In a greenhouse, seeds of rice (var.: Nipponbare and RD23) and weeds (Echinochloa oryzicola Vasing, Echinochloa cruss-galli, Leptochloa chinensis, Cyperus difformis L., Cyperus iria L., annual broad-leaved weeds (Monochoria vaginalis Presl, Lindernia procumbens Philcox, Lindernia dubia L. Penn., Rotala indica Koehne, Elatine triandra Schk, Ammannia multiflora Roxb. and the like)) were sown in a 500 cm^2 pot filled with paddy field soil and covered with soil. Water was added to the pot (a depth of 0 cm) to be a wet condition, and each test plant was grown in the greenhouse to 1.5 to 3.0 leaf-stage, after then a prescribed, diluted solution of the formulation of each active compound and each herbicidal compound in the table were separately or simultaneously sprayed over the pots with plants. At 3 days after the treatment, the water depth of 3 cm was maintained, and 4 weeks later, herbicidal effect was then examined. In the assessment of the herbicidal effect and the phytotoxicity, 100% refers to complete death and 0% refers to no effect or no phytotoxicity.

Cyperus iria L. = assay: as above; conditions: spray at 1.5 to 3.0 leaf-stage, 4 weeks later
Method: as §1, §2, §3, §4

Echinochloa cruss-galli = assay: as above; conditions: spray at 1.5 to 3.0 leaf-stage, 4 weeks later
Method: as §1, §2, §3, §4

[1] = tested on: Echinochloa oryzicola Vasing; assay: as above; conditions: spray at 1.5 to 3.0 leaf-stage, 4 weeks later
Method: as §1, §2, §3, §4

Leptochloa chinensis = assay: as above; conditions: spray at 1.5 to 3.0 leaf-stage, 4 weeks later
Method: as §1, §2, §3, §4

[2] = tested on: Monochoria vaginalis Presl; assay: as above; conditions: spray at 1.5 to 3.0 leaf-stage, 4 weeks later
Method: as §1, §2, §3, §4

[3] = tested on: annual broad-leaved weeds; assay: as above; conditions: spray at 1.5 to 3.0 leaf-stage, 4 weeks later
Method: as §1, §2, §3, §4

[4] = tested on: submerged direct sown paddy (Nipponbare); assay: Phytotoxicity, spray treatment at 1.5 to 3.0 leaf-stage (Test Example 3); conditions: spray at 1.5 to 3.0 leaf-stage, 4 weeks later
Method: as §1, §2, §3, §4

[5] = tested on: submerged direct sown paddy (RD-23); assay: as above; conditions: spray at 1.5 to 3.0 leaf-stage, 4 weeks later, RD-23
Method: as §1, §2, §3, §4

[6] = tested on: Cyperus serotinus Rottboel; assay: Weed control, flooded paddy field, treatment at 1 leaf-stage (Test Example 1); conditions: after 4 weeks
Method: as §1, §2, §3
(§5) In a greenhouse, seeds or tubers of Echinochloa, Scirpus juncoides Roxburgh, Monochoria vaginalis Presl, annual broad-leaved weeds (Lindernia procumbens Philcox, Lindernia dubia L. Penn., Rotala indica Koehne, Elatine triandra Schk, Ammannia multiflora Roxb.), Cyperus serotinus Rottboel and Sagittaria pygmaea Miq. were inoculated in a 500 cm^2 pot filled with paddy field soil. After 2 leaf-stage of rice were transplanted, water was poured to a depth of about 3 cm. At 1.0 leaf-stage of Echinochloa oryzicola Vasing, a prescribed, diluted solution of the formulation of each active compound and each herbicidal compound in the table was separately or simultaneously applied to the surface of water. After the treatment, the water depth of 3 cm was maintained, and herbicidal effect was examined after 4 weeks. In the assessment of the herbicidal effect and the phytotoxicity, 100% refers to complete death and 0% refers to no effect or no phytotoxicity.

Echinochloa [7] = assay: as above; conditions: after 4 weeks
Method: as §1, §2, §3, §5

[8] = tested on: Monochoria vaginalis Presl; assay: as above; conditions: after 4 weeks
Method: as §1, §2, §3, §5

Sagittaria pygmaea Miq. [9] = assay: as above; conditions: after 4 weeks
Method: as §1, §2, §3, §5

[10] = tested on: Scirpus juncoides Roxburgh; assay: as above; conditions: after 4 weeks
Method: as §1, §2, §3, §5

[11] = tested on: annual broad-leaved weeds; assay: as above; conditions: after 4 weeks
Method: as §1, §2, §3, §5

transplanted rice [12] = assay: Phytotoxicity, flooded paddy field, treatment at 1 leaf-stage (Test Example 1); conditions: treatment at 1 leaf-stage, after 4 weeks
Method: as §1, §2, §3, §5

[13] = tested on: Cyperus serotinus Rottboel; assay: Weed control, flooded paddy field, treatment at 3 leaf-stage (Test Example 2); conditions: after 4 weeks
Method: as §1, §2, §3
as §5, with “Echinochloa, Cyperus difformis L.,” for “Echinochloa,”, “3.0” for “1.0”, “Echinochloa,” for “Echinochloa oryzicola Vasing,”

Echinochloa [14] = assay: as above; conditions: after 4 weeks
Method: as §1, §2, §3
as §5, with “Echinochloa, Cyperus difformis L.,” for “Echinochloa,”, “3.0” for “1.0”, “Echinochloa,” for “Echinochloa oryzicola Vasing,”

[15] = tested on: Monochoria vaginalis Presl; assay: as above; conditions: after 4 weeks
Method: as §1, §2, §3
as §5, with “Echinochloa, Cyperus difformis L.,” for “Echinochloa,”, “3.0” for “1.0”, “Echinochloa,” for “Echinochloa oryzicola Vasing,”

Sagittaria pygmaea Miq. [16] = assay: as above; conditions: after 4 weeks
Method: as §1, §2, §3
as §5, with “Echinochloa, Cyperus difformis L.,” for “Echinochloa,”, “3.0” for “1.0”, “Echinochloa,” for “Echinochloa oryzicola Vasing,”

[17] = tested on: Scirpus juncoides Roxburgh; assay: as above; conditions: after 4 weeks
Method: as §1, §2, §3
as §5, with “Echinochloa, Cyperus difformis L.,” for “Echinochloa,”, “3.0” for “1.0”, “Echinochloa,” for “Echinochloa oryzicola Vasing,”

[18] = tested on: annual broad-leaved weeds; assay: as above; conditions: after 4 weeks
Method: as §1, §2, §3
as §5, with “Echinochloa, Cyperus difformis L.,” for “Echinochloa,”, “3.0” for “1.0”, “Echinochloa,” for “Echinochloa oryzicola Vasing,”

transplanted rice [19] = assay: Phytotoxicity, flooded paddy field, treatment at 3 leaf-stage (Test Example 2); conditions: rice, in vivo, 4 weeks
Method: as §1, §2, §3
as §5, with “Echinochloa, Cyperus difformis L.,” for “Echinochloa,”, “3.0” for “1.0”, “Echinochloa,” for “Echinochloa oryzicola Vasing,”

Structure (SMILES)	Herbicidal effect (%) CYPDI (Cyperus difformis L.; 30 g ai/ha) [%]	Herbicidal effect (%) CYPDI (Cyperus difformis L.; 50 g ai/ha) [%]	Herbicidal effect (%) CYPIR (Cyperus iria L.; 30 g ai/ha) [%]	Herbicidal effect (%) CYPIR (Cyperus iria L.; 50 g ai/ha) [%]	Herbicidal effect (%) ECHCG (Echinochloa cruss-galli; 30 g ai/ha) [%]	Herbicidal effect (%) ECHCG (Echinochloa cruss-galli; 50 g ai/ha) [%]	Herbicidal effect (%) ECHOR ([1]; 30 g ai/ha) [%]	Herbicidal effect (%) ECHOR ([1]; 50 g ai/ha) [%]	Herbicidal effect (%) LEFCH (Leptochloa chinensis; 30 g ai/ha) [%]	Herbicidal effect (%) LEFCH (Leptochloa chinensis; 50 g ai/ha) [%]	Herbicidal effect (%) MOOVP ([2]; 30 g ai/ha) [%]	Herbicidal effect (%) MOOVP ([2]; 50 g ai/ha) [%]	Herbicidal effect (%) BBBBB ([3]; 30 g ai/ha) [%]	Herbicidal effect (%) BBBBB ([3]; 50 g ai/ha) [%]	Phytotoxicity (%) ORYSW*^1 ([4]; 30 g ai/ha) [%]	Phytotoxicity (%) ORYSW*^1 ([4]; 50 g ai/ha) [%]	Phytotoxicity (%) ORYSW*^2 ([5]; 30 g ai/ha) [%]	Phytotoxicity (%) ORYSW*^2 ([5]; 50 g ai/ha) [%]	Phytotoxicity (%) ORYSP (transplanted rice [19]) [%]	other results
COc1nc(OC)nc(C(=O)c2cccc(Cl)c2N(C)S(=O)(=O)C(F)F)n1 [(a-2)]	100	100	100	100	100	100	100	100	65	65	40	65	70	85	5	10	5	10	–	–
COc1nc(OC)nc(C(O)c2cccc(Cl)c2N(C)S(=O)(=O)C(F)F)n1 (stereo not shown) [(a-4)]	100	100	100	100	100	100	100	100	50	50	25	25	65	75	0	5	0	0	–	–
Cc1c(Cl)ccc(OC(C)C(=O)Nc2ccccc2)c1Cl (stereo not shown) [(b-1), clomeprop]	–	–	–	–	–	–	–	–	–	–	–	–	–	–	–	–	–	–	0	Herbicidal effect (%) CYPSEE ([6]; 350 g ai/ha): 50%; Herbicidal effect (%) ECHSS (Echinochloa [7]; 350 g ai/ha): 20%; Herbicidal effect (%) MOOVP ([8]; 350 g ai/ha): 100%; Herbicidal effect (%) SAGPY (Sagittaria pygmaea Miq. [9]; 350 g ai/ha): 90%; Herbicidal effect (%) SCPSS ([10]; 350 g ai/ha): 90%; Herbicidal effect (%) BBBBB ([11]; 350 g ai/ha): 100%; Phytotoxicity (%) ORYSP (transplanted rice [12]; 350 g ai/ha): 10% and 0%; Herbicidal effect (%) CYPSEE ([13]; 350 g ai/ha): 20%; Herbicidal effect (%) ECHSS (Echinochloa [14]; 350 g ai/ha): 20%; Herbicidal effect (%) MOOVP ([15]; 350 g ai/ha): 100%; Herbicidal effect (%) SAGPY (Sagittaria pygmaea Miq. [16]; 350 g ai/ha): 90%; Herbicidal effect (%) SCPSS ([17]; 350 g ai/ha): 90%; Herbicidal effect (%) BBBBB ([18]; 350 g ai/ha): 90%
CC(C)(NC(=O)C(Br)C(C)(C)C)c1ccccc1 (stereo not shown) [(b-2), bromobutide]	–	–	–	–	–	–	–	–	–	–	–	–	–	–	–	–	–	–	0	Herbicidal effect (%) CYPSEE ([6]; 750 g ai/ha): 70%; Herbicidal effect (%) ECHSS (Echinochloa [7]; 750 g ai/ha): 100%; Herbicidal effect (%) MOOVP ([8]; 750 g ai/ha): 80%; Herbicidal effect (%) SAGPY (Sagittaria pygmaea Miq. [9]; 750 g ai/ha): 70%; Herbicidal effect (%) SCPSS ([10]; 750 g ai/ha): 90%; Herbicidal effect (%) BBBBB ([11]; 750 g ai/ha): 50%; Phytotoxicity (%) ORYSP (transplanted rice [12]; 750 g ai/ha): 0%; Herbicidal effect (%) CYPSEE ([13]; 750 g ai/ha): 90%; Herbicidal effect (%) ECHSS (Echinochloa [14]; 750 g ai/ha): 45%; Herbicidal effect (%) MOOVP ([15]; 750 g ai/ha): 70%; Herbicidal effect (%) SAGPY (Sagittaria pygmaea Miq. [16]; 750 g ai/ha): 40%; Herbicidal effect (%) SCPSS ([17]; 750 g ai/ha): 80%; Herbicidal effect (%) BBBBB ([18]; 750 g ai/ha): 30%
